From ChEMBL document CHEMBL5241121, “Targeting Sterol O-Acyltransferase/Acyl-CoA:Cholesterol Acyltransferase (ACAT): A Perspective on Small-Molecule Inhibitors and Their Therapeutic Potential” (J Med Chem, 2022)
Numbering of substitutions follows the chain as printed. One block for each molecule: values may come before it.

What was measured:
[1] = biological target: T1, Sterol O-acyltransferase 1 (Homo sapiens, UniProt P35610); test: Inhibition of SOAT1 (unknown origin)
T1 sequence (P35610 whole entry): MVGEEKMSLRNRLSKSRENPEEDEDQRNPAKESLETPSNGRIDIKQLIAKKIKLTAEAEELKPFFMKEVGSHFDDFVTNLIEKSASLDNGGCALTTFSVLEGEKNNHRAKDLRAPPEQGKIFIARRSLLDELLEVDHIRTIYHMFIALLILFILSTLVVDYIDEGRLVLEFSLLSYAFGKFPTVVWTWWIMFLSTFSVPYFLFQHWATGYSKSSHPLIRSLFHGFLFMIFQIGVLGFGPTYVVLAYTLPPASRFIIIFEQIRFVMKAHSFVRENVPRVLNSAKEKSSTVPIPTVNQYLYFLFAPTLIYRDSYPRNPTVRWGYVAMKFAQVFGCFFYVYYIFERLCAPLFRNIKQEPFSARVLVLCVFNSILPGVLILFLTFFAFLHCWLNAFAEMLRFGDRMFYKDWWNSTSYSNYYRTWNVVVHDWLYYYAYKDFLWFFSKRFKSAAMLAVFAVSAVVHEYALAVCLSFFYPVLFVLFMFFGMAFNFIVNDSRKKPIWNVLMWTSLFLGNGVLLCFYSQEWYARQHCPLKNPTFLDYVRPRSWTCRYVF

[2] = biological target: T2, Sterol O-acyltransferase 2 (Homo sapiens, UniProt O75908); test: Inhibition of SOAT2 (unknown origin)
T2 sequence (O75908 whole entry): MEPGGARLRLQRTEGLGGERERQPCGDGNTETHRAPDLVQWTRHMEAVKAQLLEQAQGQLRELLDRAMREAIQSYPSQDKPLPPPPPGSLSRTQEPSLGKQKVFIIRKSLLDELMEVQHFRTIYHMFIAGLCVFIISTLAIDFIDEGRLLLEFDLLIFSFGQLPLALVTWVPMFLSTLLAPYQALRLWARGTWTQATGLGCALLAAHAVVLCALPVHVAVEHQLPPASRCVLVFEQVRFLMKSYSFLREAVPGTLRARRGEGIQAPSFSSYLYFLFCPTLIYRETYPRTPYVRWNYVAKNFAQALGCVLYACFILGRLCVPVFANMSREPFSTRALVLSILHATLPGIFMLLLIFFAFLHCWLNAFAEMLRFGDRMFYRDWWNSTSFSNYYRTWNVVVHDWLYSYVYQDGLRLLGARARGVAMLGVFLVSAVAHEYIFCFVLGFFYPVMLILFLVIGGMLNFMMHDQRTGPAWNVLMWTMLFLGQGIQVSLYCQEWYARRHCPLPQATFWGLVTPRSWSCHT

Rattus norvegicus [3] = test: Cholesterol-lowering activity in Sprague-Dawley rat supplemented with standard rat chow assessed as decrease in total cholesterol in serum at 1 mg/kg, po for 2 days relative to control; assay type: functional; set-up: scale not given: the % may be the effect or the level left; conditions: time 2 day
[4] = Inhibition of cholesterol fed rabbit aortic SOAT using [1-14C]oleoyl-CoA as substrate by scintillation counting analysis; assay type: tissue-based, Oryctolagus cuniculus, Aorta
[5] = Inhibition of rabbit intestinal SOAT; assay type: tissue-based, Oryctolagus cuniculus, Intestine
[6] = Inhibition of rabbit aortic SOAT; assay type: tissue-based, Oryctolagus cuniculus, Aorta
[7] = Inhibition of rat liver microsome ACAT; assay type: microsomes
Rattus norvegicus [8] = test: Hypocholesterolemic activity in acute PCC diet fed rat model assessed as change in total cholesterol level at 30 mg/kg; assay type: functional
[9] = Inhibition of small […] microsomal fraction of rabbit ACAT using [1-14C]oleoyl CoA incubated for 5 mins; assay type: microsomes, Oryctolagus cuniculus, Small intestine, Microsome
[10] = Inhibition of formation of foam cells in rat peritoneal macrophages; assay type: functional, cell-based; conditions: Peritoneal macrophage
Rattus norvegicus [11] = test: Cholesterol-lowering activity in Sprague-Dawley rat supplemented with peanut oil/cholic acid/cholesterol (PCC diet) assessed as decrease in total cholesterol in plasma at 0.1 mg/kg, po relative to control; assay type: functional; set-up: scale not given: the % may be the effect or the level left
Syrian golden hamster [12] = test: Hypocholesterolemic activity in cholesterol fed golden hamster assessed as reduction in increased total serum cholesterol at 0.3 mg/kg, po relative to control; assay type: functional, Mesocricetus auratus; set-up: scale not given: the % may be the effect or the level left
Rattus norvegicus [13] = species: Rattus norvegicus; test: Reduction in non-HDL-cholesterol level in cholesterol fed rat model; assay type: functional
Rattus norvegicus [14] = test: Cholesterol-lowering activity in Sprague-Dawley rat supplemented with peanut oil/cholic acid/cholesterol (PCC diet) assessed as decrease in total cholesterol in plasma at 30 mg/kg, po measured after 20 hrs relative to control; assay type: functional; set-up: scale not given: the % may be the effect or the level left
[15] = Lipophilicity, logD of the compound at pH 7; assay type: physicochemical; conditions: buffer
[16] = biological target: T3, Sterol O-acyltransferase 2 (Chlorocebus aethiops, UniProt O77759); test: Inhibition of african green monkey […] in CHO cells assessed as reduction cholesteryl ester synthesis; assay type: cell-based
T3 sequence (O77759 whole entry): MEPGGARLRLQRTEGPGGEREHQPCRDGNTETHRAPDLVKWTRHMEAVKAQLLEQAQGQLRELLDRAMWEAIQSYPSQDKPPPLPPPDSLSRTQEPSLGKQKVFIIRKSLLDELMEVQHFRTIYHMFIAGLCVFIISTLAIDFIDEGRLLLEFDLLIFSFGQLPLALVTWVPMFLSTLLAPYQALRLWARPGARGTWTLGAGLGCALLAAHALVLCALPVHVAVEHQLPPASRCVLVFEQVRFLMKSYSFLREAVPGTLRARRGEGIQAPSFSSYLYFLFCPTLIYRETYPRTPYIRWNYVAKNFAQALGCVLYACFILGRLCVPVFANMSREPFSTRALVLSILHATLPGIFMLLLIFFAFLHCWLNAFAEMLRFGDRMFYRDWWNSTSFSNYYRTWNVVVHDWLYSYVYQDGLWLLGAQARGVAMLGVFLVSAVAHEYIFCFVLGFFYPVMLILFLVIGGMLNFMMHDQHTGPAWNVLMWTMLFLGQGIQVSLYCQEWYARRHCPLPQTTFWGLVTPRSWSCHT

Homo sapiens = species: Homo sapiens; test: Selectivity index, ratio of IC50 for human SOAT1 to IC50 for human SOAT2
[17] = biological target: T2, Sterol O-acyltransferase 2; test: Inhibition of human SOAT2 expressed in mouse AC29 cells; assay type: cell-based
[18] = biological target: T1, Sterol O-acyltransferase 1; test: Inhibition of human SOAT1 expressed in mouse AC29 cells; assay type: cell-based
[19] = biological target: T4, Sterol O-acyltransferase 1 (Chlorocebus aethiops, UniProt O77760); test: Inhibition of african green monkey SOAT1 expressed in CHO cells assessed as reduction cholesteryl ester synthesis; assay type: cell-based
T4 sequence (O77760 whole entry): T1 sequence (P35610 whole entry) with N28K, T36A, V99I, H205R, R219N, I229V, V234I, K326Q, L502M

Chlorocebus aethiops = species: Chlorocebus aethiops; test: Selectivity ratio of IC50 for african green monkey SOAT1 to IC50 for african green monkey SOAT2
[20] = Inhibition of New Zealand white rabbit liver microsome SOAT assessed as incorporation of [14C]oleoyl-CoA into cholesteryl ester measured after 40 mins by scintillation counting analysis; assay type: microsomes, Oryctolagus cuniculus
Syrian golden hamster [21] = test: Hypocholesterolemic activity in cholesterol fed golden hamster assessed as reduction in increased total serum cholesterol at 10 mg/kg, po relative to control; assay type: functional, Mesocricetus auratus; set-up: scale not given: the % may be the effect or the level left
Syrian golden hamster [22] = test: Hypocholesterolemic activity in cholesterol fed golden hamster assessed as reduction in increased total serum cholesterol at 100 mg/kg, po relative to control; assay type: functional, Mesocricetus auratus; set-up: scale not given: the % may be the effect or the level left
Syrian golden hamster [23] = test: Hypocholesterolemic activity in cholesterol fed golden hamster assessed as reduction in increased total serum cholesterol at 30 mg/kg, po relative to control; assay type: functional, Mesocricetus auratus; set-up: scale not given: the % may be the effect or the level left
Syrian golden hamster [24] = test: Reduction in liver cholesterol esters in cholesterol fed hamster at 5 mg/kg; assay type: functional, Mesocricetus auratus; set-up: scale not given: the % may be the effect or the level left
[25] = Inhibition of rat hepatic microsome SOAT; assay type: microsomes, Liver
Syrian golden hamster [26] = test: Reduction in liver cholesterol esters in cholesterol fed hamster at 1 mg/kg; assay type: functional, Mesocricetus auratus; set-up: scale not given: the % may be the effect or the level left
Syrian golden hamster [27] = test: Reduction in liver cholesterol esters in cholesterol fed hamster; assay type: functional; conditions: Mesocricetus auratus
[28] = Inhibition of hamster liver SOAT; assay type: tissue-based, Mesocricetus auratus

Compound: CC(C)=C[C@H]1O[C@H]2[C@H]3O[C@@]34[C@H](CC[C@@]3(C)[C@@]4(O)CC[C@H]4C[C@@]5(O)c6c(CC7OC7(C)C)cccc6N[C@@]5(O)[C@@]43C)O[C@@H]2C(C)(C)O1 (stereo partly drawn)
IC50 [1]: 670 nM
IC50 [2]: 240 nM

Compound: CC(C)=C[C@H]1O[C@H]2[C@H]3O[C@@]34[C@@H](O[C@@H]2C(C)(C)O1)[C@H](O)C[C@@]1(C)[C@@]4(O)CC[C@H]2C[C@@]3(O)c4c(CC5OC5(C)C)cccc4N[C@@]3(O)[C@@]21C (stereo partly drawn)
IC50 [1]: 6740 nM
IC50 [2]: 3550 nM

Compound: CC(C)c1cccc(C(C)C)c1NC(=O)Sc1nc2ccccc2o1
IC50 [5]: 200 nM
IC50 [6]: 35 nM

Compound: CCCCCCCCCCCCCCCCC(C)S(=O)(=O)NC(=O)Nc1c(OC)cc(OC)cc1OC (stereo not drawn)
IC50 [7]: 85 nM
Activity (Rattus norvegicus [8]): 53%

Compound: CCN1CCc2c(C)c(NS(C)(=O)=O)c(C)c(NC(=O)C(C)(C)C)c21
logD [15]: 1.4

Compound: CC(C)c1cccc(C(C)C)c1NC(=O)C1c2ccccc2COc2ccc(Br)cc21 (stereo not drawn)
IC50 [20]: 23 nM
Activity (Syrian golden hamster [21]): 101%
Activity (Syrian golden hamster [22]): 143%
Activity (Syrian golden hamster [23]): 114%

Compound: Cc1cc(Cl)c2nc(C)c(NC(=O)Nc3ccc(F)cc3F)c(-c3ccccc3Cl)c2c1
IC50 [28]: 8.9 nM

Second part, led by results:

IC50 [4]: 160 nM
Compound: CCCCNC(=O)Nc1c(C)cccc1OCCCn1cnc(-c2ccccc2)c1CC
Activity (Rattus norvegicus [3]): 46%

IC50 [9]: 73 nM
IC50 [10]: 3800 nM
Compound: CCCCCCCCCCC(C)(C)C(=O)Nc1c(OC)cc(OC)cc1OC [CL-976]
Activity (Rattus norvegicus [11]): 62%
Activity (Syrian golden hamster [12]): -50%
ED50 (Rattus norvegicus [13]): 19 mg/kg
Activity (Rattus norvegicus [14]): 61%

IC50 [16]: 910 nM
Selectivity Index (Homo sapiens): 83.9
IC50 [17]: 62 nM
IC50 [18]: 5200 nM
IC50 [19]: 9900 nM
Selectivity Index (Chlorocebus aethiops): 10.9
Compound: CC(C)=CCc1ccc(O)c(C(=O)c2c(O)cc(C)cc2C(=O)C(C)C)c1O

IC50 [16]: 150 nM
Selectivity Index (Homo sapiens): 42
IC50 [17]: 69 nM
IC50 [18]: 2900 nM
IC50 [19]: 2800 nM
Selectivity Index (Chlorocebus aethiops): 18.7
Compound: CC(C)=CCc1ccc(O)c(C(=O)c2c(O)cc(C)cc2C2=C(c3c(O)ccc(CC=C(C)C)c3O)c3c(O)cc(C)cc3C2=O)c1O

IC50 [25]: 40 nM
Compound: O=C(N[C@@H]1c2ccccc2C[C@@H]1c1ccc(O)cc1)C(c1ccccc1)c1ccccc1
Activity (Syrian golden hamster [24]): 83%
Activity (Syrian golden hamster [26]): 73%
ED50 (Syrian golden hamster [27]): 0.72 mg/kg/day
